Here are results for 43 molecules from PubChem BioAssay AID1033 (Sanford-Burnham Center for Chemical Genomics, 2008).

Molecules are shown by their SMILES. Active and inactive are the calls of the source. How the calls were made is not given here.

Sequence of Chaperone protein DnaK (Escherichia coli (strain K12)) (P0A6Y8 whole entry, looked up): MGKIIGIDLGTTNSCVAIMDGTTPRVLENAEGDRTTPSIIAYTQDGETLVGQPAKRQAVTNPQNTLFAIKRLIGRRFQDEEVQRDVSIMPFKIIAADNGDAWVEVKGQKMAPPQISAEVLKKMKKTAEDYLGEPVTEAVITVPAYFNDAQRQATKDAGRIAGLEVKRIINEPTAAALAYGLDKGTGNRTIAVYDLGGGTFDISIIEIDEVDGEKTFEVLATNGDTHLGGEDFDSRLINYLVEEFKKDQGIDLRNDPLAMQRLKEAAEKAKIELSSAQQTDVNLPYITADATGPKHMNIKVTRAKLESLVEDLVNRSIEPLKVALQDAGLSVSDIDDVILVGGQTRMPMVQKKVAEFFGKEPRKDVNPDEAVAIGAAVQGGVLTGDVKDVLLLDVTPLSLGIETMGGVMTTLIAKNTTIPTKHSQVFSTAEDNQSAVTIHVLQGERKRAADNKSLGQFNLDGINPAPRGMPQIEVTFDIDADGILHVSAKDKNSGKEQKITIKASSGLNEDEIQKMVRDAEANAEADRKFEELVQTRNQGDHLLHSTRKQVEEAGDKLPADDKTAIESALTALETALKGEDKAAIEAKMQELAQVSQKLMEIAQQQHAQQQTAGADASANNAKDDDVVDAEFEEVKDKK

The assay concerns the target Chaperone protein DnaK (Escherichia coli (strain K12)) (UniProt P0A6Y8). In words: E. coli DnaK SBD ligand binding – biophysical, NMR, chaperone (AID 1033). The following applies: Purified DnaK SBD.
For the molecule `NC(=O)C1CCN(C(=O)Nc2ccccc2)CC1`, the Kd is > 4 mM (inactive).

As to `CC1(C)N=C2C(=N)C=CC=C2N1O`, the Kd was > 4 mM (inactive).

`O=C(O)C1CC(=O)N(Cc2ccco2)C1` (stereo not drawn): the Kd is > 4 mM (inactive).

`CNc1nnc(Cc2csc(N)n2)s1`: the Kd is > 4 mM (inactive).

For `CN1CCC(NC(=O)c2ccccc2[N+](=O)[O-])CC1`, the Kd was > 4 mM (inactive).

Turning to `Nc1ccccc1N1CCOCC1`, the Kd was > 4 mM (inactive).

In the case of `O=S1(=O)CCC(NCCO)C1` (stereo not drawn), the Kd was > 4 mM (inactive).

Regarding `CN1CCN(c2cc(=O)n(C)c(=O)[nH]2)CC1`, the Kd was > 4 mM (inactive).

For `NC(=O)CSc1nnc2ccc3ccccc3n12`, the Kd was > 4 mM (inactive).

Turning to `O=C(O)c1ccc2snnc2c1`, the Kd was > 4 mM (inactive).

Consider `Cc1cc(C)n2nc(N)nc2n1`, for which the Kd is > 4 mM (inactive).

`c1ccc(-c2nnc(CNCc3ccco3)o2)cc1`: the Kd was > 4 mM (inactive).

With `O=c1[nH]c2ccccc2c(=O)n1CCCO`, the Kd is > 4 mM (inactive).

As for `Nc1cc(=O)[nH]c(=S)n1CCc1ccccc1`, the Kd was > 4 mM (inactive).

For `CC(=O)Nc1cnn(Cc2ccc(Br)cc2)c1`, the Kd is > 4 mM (inactive).

For the molecule `CCNC(CC(=O)Nc1ccc(F)cc1)C(=O)O` (stereo not drawn), the Kd is > 4 mM (inactive).

Consider `Cc1nc2ccc(C(=O)O)cc2[nH]1`, for which the Kd is > 4 mM (inactive).

For the molecule `O=C1CSC(=Nc2cccc(C(=O)O)c2)N1`, the Kd is > 4 mM (inactive).

In the case of `CN=C(C)c1c(O)n(C)c(=S)n(C)c1=O`, the Kd was > 4 mM (inactive).

Take `N=c1c2c3c(sc2ncn1N)CCCC3`: the Kd was > 4 mM (inactive).

Consider `Cc1c(N=CN(C)C)c(=O)n(-c2ccccc2)n1C`, for which the Kd is > 4 mM (inactive).

As for `Cc1noc(C)c1C(=O)N1CCC2(CC1)OCCO2`, the Kd was > 4 mM (inactive).

Regarding `CC1(C)Cc2nc(N3CCOCC3)c(C#N)cc2CO1`, the Kd was > 4 mM (inactive).

With `O=C1CC(c2ccccc2)n2ncnc2N1` (stereo not drawn), the Kd is > 4 mM (inactive).

Turning to `CS(=O)(=O)N1CCN(C(=O)Cc2cccs2)CC1`, the Kd is > 4 mM (inactive).

Take `COc1ccc2c(c1)CCCN2C(N)=O`: the Kd is > 4 mM (inactive).

Take `CSc1nc(NC(C)(C)C)nc(N2CCOCC2)n1`: the Kd was > 4 mM (inactive).

`CC[C@@H]1[C@@H](O)N2C3C[C@H]1C1C(O)[C@]4(C[C@@H]12)c1ccccc1N(C)[C@@H]34` (stereo partly drawn): the Kd was > 4 mM (inactive).

As to `COc1ccc(C(=O)/C=C2\NC(=S)NC2=O)cc1`, the Kd was > 4 mM (inactive).

For the molecule `Cc1nn(C)c(C)c1C(=O)O`, the Kd is > 4 mM (inactive).

Consider `Cc1cc2ncn(S(=O)(=O)N3CCOCC3)c2cc1C`, for which the Kd was > 4 mM (inactive).

As to `O=C1c2ccccc2C(=O)N1OCc1ccccc1`, the Kd is > 4 mM (inactive).

Turning to `CC(=O)N(c1ccccc1)C1C=CS(=O)(=O)C1` (stereo not drawn), the Kd is > 4 mM (inactive).

Turning to `O=C(c1cccc(C(F)(F)F)c1)N1CCCC1`, the Kd is > 4 mM (inactive).

As for `O=C1NC(=S)NC(=O)C1=Cc1ccco1`, the Kd was > 4 mM (inactive).

On to `CC(CCC(=O)O)[C@H]1CCC2C3CC[C@@H]4CCCC[C@]4(C)C3CC[C@@]21C` (stereo partly drawn), for which the Kd was > 4 mM (inactive).

In the case of `CN1CCN(c2ncnc3nc[nH]c23)CC1`, the Kd was > 4 mM (inactive).

For `O=C(O)c1ccc(-c2cccs2)cc1`, the Kd is > 4 mM (inactive).

With `O=C(O)CNC(=O)c1ccc([N+](=O)[O-])cc1`, the Kd is > 4 mM (inactive).

Take `Cc1nn(-c2ccccc2)nc1CO`: the Kd is > 4 mM (inactive).

On to `CC(=O)Nc1ccc(C(=O)n2nc(C)cc2C)cc1`, for which the Kd is > 4 mM (inactive).

As to `COc1c2occc2cc2ccc(=O)oc12`, the Kd is > 4 mM (inactive).

In the case of `O=C1C2CC=C(Cl)CC2C(=O)N1c1ccccc1O` (stereo not drawn), the Kd was > 4 mM (inactive).

What is called Kd is the constant that tells how readily two partners part at equilibrium.
